The text below walks through data of article PMC6290023 (Scientific Reports, 2018).

Peptide text beside a SMILES is read from it.

For series [1], the system named is FeCl3-induced thrombosis model in CCA. Nature of the series: FeCl3-induced thrombosis model in CCA, thrombolysis with tPA. The following applies: mouse, tPA 10 mg/kg 30 min post-CCA occlusion. Format: in vivo. The method, then: The ischemic damage was evaluated at 48 h after MCAo in sections stained with cresyl violet. Coronal sections (12 μm thickness) were made at −1.4, −0.7, 0, 0.7 and 1.4 mm from the bregma, mounted on the stereomicroscope and photographed. The volume of the infarct was calculated by the sum of each area of all sections corrected by cerebral edema and multiplied by the thickness of the slices. In the experiment of tPA-induced hemorrhage, PE10-catheter was placed in the right internal jugular vein at 6 h after ischemia. The nylon suture was then removed and 10% of the MHP-AcN mixture (150 µg/mice) and tPA (10 mg/kg) were injected followed by continuous injection of residual mixture of MHP1-AcN and tPA using a syringe pump (UNIVENTOR 400 ANAESTHESIA UNIT, ZTN, MALTA). In the experiment of FeCl3 -induced thrombosis model in CCA, a piece of filter paper soaked in 7.5% FeCl3 was placed on the right CCA for 1 min and it was rinsed with saline. Blood flow was recorded by using a laser speckle blood flow imager (OMEGAZONE OZ-2, OMEGAWAVE, INC., Tokyo, Japan). tPA (10 mg/kg) or mixture of MHP1-AcN (150 μg/mice) and tPA was started to be administered at 30 min after CCA occlusion.

Series [2] has as its system LPS-stimulated MG6 cells. Nature of the series: LDH assay in LPS-stimulated MG6 cells. Format: cell-based, mouse.
Series [3] is described as follows: Dissolution in water and sedimentation in 0.45% saline at 37 °C for 24 h. Format: physicochemical. Here is the method: Synthetic MHP1 (NH2-[…]-COOH), MHP1-DN1 (NH2-LMVYVV-DLys-[…]-COOH), MHP1-DN2 (NH2-LMV-DTyr-[…]-COOH), MHP1-DN3 (NH2-L-DMet-[…]-COOH), MHP1-DC (NH2-LMVYVVKTSIKIPSSHNL-DMet-KGGSTKNWSGN-COOH), MHP1-Ac (Ac-[…]-COOH), MHP1-AcN (Ac-[…]-HN2), or MHP1-N (NH2-[…]-NH2) was purchased from ILS, Inc (Ibaraki, Tsukuba, Japan), dissolved in 1 or 2 mg/ml ddH2O and stored at 4 °C until use (Table 1).

Series [4] can be described thus: Pharmacokinetics after intravenous injection 4 h after tMCAo (LC/MS/MS). The settings on record: mouse, i.v. 2 mg/ml, 10 ml/kg in 0.45% saline. The format is in vivo. The method, then:
MHP1-Ac or MHP1-AcN (2 mg/ml, 10 ml/kg in 0.45% saline) was administered intravenously 4 hrs after tMCAo and mouse plasma was collected at 5 min, 10 min, 20 min, 30 min, 45 min, 1 h, and 2 h after injection. Mouse plasma (C57BL6J, 10 µL) and water/phosphoric acid (24:1, v/v) (Solution B, 500 µL) were mixed together to prepare the plasma samples. The samples (510 µL) were then analyzed using LC/MS/MS to determine MHP1-Ac or MHP1-AcN in plasma. Mouse brain was weighed and mixed with a 4-fold volume of solution B and the mixture was homogenized to prepare the brain samples. The specific gravity of solution B was assumed to be 1. The brain samples (10 µL) were analyzed using LC/MS/MS to determine MHP1-Ac or MHP1-AcN in brain. MHP1-Ac and MHP1-AcN, and MHP1-N (internal standard), in the plasma samples and brain samples, were extracted using Oasis HLB μElution Plate (Waters). Chromatographic analysis was performed on an InertSustain C18 (2.1 mm I.D. ×50 mm, 3 µm, GL Sciences) column using the mobile phase A, water/formic acid (1000:1, v/v), and the mobile phase B, acetonitrile/formic acid (1000:1, v/v).

The test system of series [5] is LPS-stimulated MG6 cells. Nature of the series: Anti-inflammatory effect in LPS-stimulated MG6 cells (TNF-α / IL-6 ELISA). The format is cell-based, mouse. The settings on record: LPS-stimulated MG6 cells. The method, then:
MG6 cells were obtained from RIKEN BRC (Tsukuba, Japan)[25],[26]. The MG6 cells were maintained in DMEM (Nakarai, Kyoto, Japan) supplemented with 10% FBS (Thermo Fisher Scientific, Waltham, MA, USA), 10 μg/ml insulin (Sigma-Aldrich, St. Louis, MO, USA) and 100 μM 2-mercaptoethanol (Sigma-Aldrich). These cells (1 × 10^5 cells) were plated in 96-well plastic culture dishes. After overnight incubation, the medium was replaced with DMEM supplemented with 4% FBS. LPS (Escherichia coli 0111: B4; Sigma-Aldrich, St. Louis, MO, USA) and MHP1 or modified MHP1 was added to the medium, which was then harvested at 24 h after stimulation. In the experiment checking the stability at 26 or 37 °C, MHP1-Ac or MHP1-AcN was incubated at 26 or 37 °C for 24 h before adding to the medium.
The concentrations of TNF-α and IL-6 were measured using commercially available ELISA kits: TNF-α, Quantikine Mouse TNF-α ELISA Kit (R&D systems); IL-6, Quantikine Mouse IL-6 ELISA Kit (R&D systems).
A general note: In an ELISA, binding on a coated surface is turned into a signal by an enzyme label.

Series [6] has as its system mouse osteoclast precursor cells. The settings on record: cited from earlier work. The source says:
(§1) To solve this problem, we developed a novel peptide “microglial healing peptide1 (MHP1)”, which is a partial peptide of RANKL, to inhibit […] inflammation without activating osteoclast. The binding sites of RANKL for its receptor RANK responsible for osteoclastogenesis were not included in the MHP1 sequence, but other binding sites that are unrelated to osteoclastogenesis (DE and EF loops) were included. […] The sequence of MHP1 is “[…]” and we demonstrat ...

The next series relates to TLR2, 7, 8. The settings on record: cited from earlier work.
Text: as §1

A further series deals with tMCAo model in mice. The settings on record: cited from earlier work. Here is the method:
As we have previously shown that intravenous injection of MHP1 (150 μL, 2 mg/ml), started from 6 hrs after tMCAo and followed by subcutaneous injection with Alzet pump (200 μL, 2 mg/ml) for 24 h, is effective, we studied whether a lower dose of MHP1-AcN was effective in reducing ischemic injury.

Series [7] has as its system LPS-stimulated MG6 cells. The following applies: peptide incubated at 37 °C for 24 h; cited from earlier work. The method, then: This might be a result of the key sequence of MHP1 being preserved owing to N-terminus acetylation, which generally makes the peptide resistant to protease degradation. The difference in causing sedimentation at 37 °C for 24 h between MHP1-Ac and MHP1-AcN was dependent on the existence of C-terminal amidation, which has been reported to promote the stabilization of the secondary structure of the peptide.

Series [8] can be described thus: Stability of MHP1 in mouse serum (HPLC/MS). The following applies: mouse (CD-1(ICR)) serum, 200 μg/mL MHP1, 37 °C, HPLC UV 210 nm, mean ± SD. The format is in vitro ADME. The method, then:
Mouse (CD-1(ICR)) serum was obtained from KAC (Kyoto, Japan) and stored below −15 °C until use. MHP1 (2 mg/mL in ultrapure water) was spiked in mouse serum on ice to obtain a final concentration of 200 μg/mL. The serum was incubated at 37 °C and aliquots of the reaction mixture collected at the incubation times 0, 10, 30, and 60 min. Each aliquot was deproteinized with the addition of an ice-cold solvent (acetonitrile: methanol: acetic acid = 500:500:1). The mixtures were left at −20 °C for 20 minutes and stored on ice. After the addition of 1% acetic acid, the mixture was vigorously vortexed and centrifuged (12000 × g, 4 °C, 10 min). The supernatant was injected into the HPLC system and analyzed by reversed-phase chromatography with a water–acetonitrile (0.1% trifluoroacetic acid) linear gradient elution. MHP1 was detected by ultraviolet light at 210 nm.

[9] abbreviates: medium harvested 24 h after stimulation, ELISA.

As to “tPA: tissue plasminogen activator, thrombolytic used in acute ischemic stroke”, in series [1], the “time from tPA application to clot lysis (recanalization)” value is “approximately 20 min”.

On to `CC[C@H](C)[C@H](NC(=O)[C@H](CO)NC(=O)[C@@H](NC(=O)[C@H](CCCCN)NC(=O)[C@@H](NC(=O)[C@@H](NC(=O)[C@H](Cc1ccc(O)cc1)NC(=O)[C@@H](NC(=O)[C@H](CCSC)NC(=O)[C@H](CC(C)C)NC(C)=O)C(C)C)C(C)C)C(C)C)[C@@H](C)O)C(=O)N[C@@H](CCCCN)C(=O)N[C@H](C(=O)N1CCC[C@H]1C(=O)N[C@@H](CO)C(=O)N[C@@H](CO)C(=O)N[C@@H](Cc1c[nH]cn1)C(=O)N[C@@H](CC(N)=O)C(=O)N[C@@H](CC(C)C)C(=O)N[C@@H](CCSC)C(=O)N[C@@H](CCCCN)C(=O)NCC(=O)NCC(=O)N[C@@H](CO)C(=O)N[C@H](C(=O)N[C@@H](CCCCN)C(=O)N[C@@H](CC(N)=O)C(=O)N[C@@H](Cc1c[nH]c2ccccc12)C(=O)N[C@@H](CO)C(=O)NCC(=O)N[C@@H](CC(N)=O)C(=O)O)[C@@H](C)O)[C@@H](C)CC` [MHP1-Ac] (Ac-LMVYVVKTSIKIPSSHNLMKGGSTKNWSGN-OH), for which, in the series with LPS-stimulated MG6 cells [2], the “cytotoxicity (LDH assay)” value is reported as “did not increase cytotoxicity”. For the same compound, the “sedimentation after incubation in 0.45% saline” value in [3] (0.45% saline, 37 °C, 24 h, visual, concentration not given) is “experienced sedimentation”. In series [3] (water), the dissolution in water entry is recorded as “easily dissolved in water”. For the same compound, the “time post-injection until which peptide was detected in the brain” value in series [4] (brain homogenate, last sampling 2 h) is 2 h. Besides, in [4] (plasma), the “time within which peptide was degraded in plasma” value is recorded as no more than 20 min. In addition, the “anti-inflammatory effects at 1 µg/ml” value in the series on LPS-stimulated MG6 cells [5] (1 µg/ml peptide) was “not seen”. In addition, the “dose dependency of anti-inflammatory effects” value with LPS-stimulated MG6 cells [5] (24 h, ELISA) is “Dose-dependent anti-inflammatory effects were observed”. In addition, in the series on LPS-stimulated MG6 cells [5] (setting [9]), the “inhibition of IL-6 expression compared with MHP1” value was “more effective than MHP1” and the “inhibition of TNF-α expression compared with MHP1” value was “more effective than MHP1”.

By amount remaining is commonly meant the share of the starting amount still present when the sample was taken. In the case of `CC[C@H](C)[C@H](NC(=O)[C@H](CO)NC(=O)[C@@H](NC(=O)[C@H](CCCCN)NC(=O)[C@@H](NC(=O)[C@@H](NC(=O)[C@H](Cc1ccc(O)cc1)NC(=O)[C@@H](NC(=O)[C@H](CCSC)NC(=O)[C@@H](N)CC(C)C)C(C)C)C(C)C)C(C)C)[C@@H](C)O)C(=O)N[C@@H](CCCCN)C(=O)N[C@H](C(=O)N1CCC[C@H]1C(=O)N[C@@H](CO)C(=O)N[C@@H](CO)C(=O)N[C@@H](Cc1c[nH]cn1)C(=O)N[C@@H](CC(N)=O)C(=O)N[C@@H](CC(C)C)C(=O)N[C@@H](CCSC)C(=O)N[C@@H](CCCCN)C(=O)NCC(=O)NCC(=O)N[C@@H](CO)C(=O)N[C@H](C(=O)N[C@@H](CCCCN)C(=O)N[C@@H](CC(N)=O)C(=O)N[C@@H](Cc1c[nH]c2ccccc12)C(=O)N[C@@H](CO)C(=O)NCC(=O)N[C@@H](CC(N)=O)C(=O)O)[C@@H](C)O)[C@@H](C)CC` [MHP1] (H-LMVYVVKTSIKIPSSHNLMKGGSTKNWSGN-OH), in series [6], the “effect on RANKL-induced osteoclast activation” value was “inhibited RANKL-induced osteoclast activation” and the “effect on osteoclast activation (peptide alone)” value is on record as “did not affect osteoclast activation”. Also, the “effect on TLR2, 7, 8-induced inflammations” value with TLR2, 7, 8 is given as “inhibited”. Besides, in the series with tMCAo model in mice (i.v. 150 μL, 2 mg/ml from 6 hrs after tMCAo, then s.c. Alzet pump 200 μL, 2 mg/ml for 24 h), the “efficacy in tMCAo” value was “effective”. The “ischemic injury in tMCAO model” value in the series on tMCAo model in mice (intracerebroventricularly 4 h, or intravenously 4 or 6 h post-ischemia) was “reduced”. In addition, the “anti-inflammatory effects after incubation at 37 °C for 24 h” value in the series on LPS-stimulated MG6 cells [7] is given as “loses its anti-inflammatory effects”. Besides, in [8] (10 min, read-out: residual MHP1 remaining intact in mouse serum), the amount remaining at 10 min, 200 μg/mL is 83 ± 5.9%. Moreover, the “residual MHP1 remaining intact in mouse serum” value in [8] (30 min) was determined as 50.3 ± 3.6%. In series [8] (30 min, read-out: residual MHP1 remaining intact in mouse serum), the fraction remaining at 0.5 h, 200 μg/mL is 50%. Moreover, the fraction remaining at 1 h, 200 μg/mL in series [8] (60 min, read-out: residual MHP1 remaining intact in mouse serum) was determined as 27.5 ± 3.2%.
